Measured values published in patent US7563903B2, “Acylaminothiazole derivatives, their preparation and their therapeutic use” (Sanofi-Aventis, priority 2003, dated 2009).

Compound | melting point [°C]
CCC[C@H](NC(=O)[C@@H](O)C(C)(C)C)C(=O)Nc1ncc(-c2ccccc2COc2ccc(C)c(C)c2)s1 [compound 27, (2S)—N-(5-{2-[(3,4-dimethylphenoxy)methyl]phenyl}-1,3-thiazol-2-yl)-2-{[(2S)-2-hydroxy-3,3-dimethylbutanoyl]amino}pentanamide] | 89
CCC[C@H](NC(=O)[C@@H](O)C(C)C)C(=O)Nc1ncc(-c2cc(F)ccc2COc2ccccc2)s1 [compound 56, (2S)—N-{5-[5-fluoro-2-(phenoxymethyl)phenyl]-1,3-thiazol-2-yl}-2-{[(2S)-2-hydroxy-3-methylbutanoyl]amino}pentanamide] | 61.4
CCC[C@H](NC(=O)[C@@H](O)C(C)(C)C)C(=O)Nc1ncc(-c2ccccc2COCC)s1 [compound 15, (2S)—N-{5-[2-(ethoxymethyl)phenyl]-1,3-thiazol-2-yl}-2-{[(2S)-2-hydroxy-3,3-dimethylbutanoyl]amino}pentanamide] | 148
CCC[C@H](NC(=O)[C@@H](O)C(C)(C)C)C(=O)Nc1ncc(-c2ccccc2COc2ccncc2)s1 [Compound No. 70, (2S)-2-{[(2S)-2-hydroxy-3,3-dimethylbutanoyl]amino}-N-(5-{2-[(4-pyridinyloxy)methyl]phenyl}-1,3-thiazol-2-yl)pentanamide] | 112.7
CCC[C@H](NC(=O)[C@@H](O)C(C)(C)C)C(=O)Nc1ncc(-c2ccccc2COc2ccc(OC)c(OC)c2)s1 [compound 30, (2S)—N-(5-{2-[(3,4-dimethoxyphenoxy)methyl]phenyl}-1,3-thiazol-2-yl)-2-{[(2S)-2-hydroxy-3,3-dimethylbutanoyl]amino}pentanamide] | 81.5
C[C@H](NC(=O)[C@@H](O)C(C)(C)C)C(=O)Nc1ncc(-c2ccccc2COC2CCCCC2)s1 [compound 66, (2S)—N-{(1S)-2-[(5-{2-[(cyclohexyloxy)methyl]phenyl}-1,3-thiazol-2-yl)amino]-1-methyl-2-oxoethyl}-2-hydroxy-3,3-dimethylbutanamide] | 104.8
CCC[C@H](NC(=O)[C@@H](O)C(C)(C)C)C(=O)Nc1ncc(-c2ccccc2COc2ccccc2CC)s1 [compound 20, (2S)—N-(5-{2-[(2-ethylphenoxy)methyl]phenyl}-1,3-thiazol-2-yl)-2-{[(2S)-2-hydroxy-3,3-dimethylbutanoyl]amino}pentanamide] | 107
CCC[C@H](NC(=O)[C@@H](O)C(C)(C)C)C(=O)Nc1ncc(-c2ccccc2COc2ccc(C)cc2C)s1 [compound 32, (2S)—N-(5-{2-[(2,4-dimethylphenoxy)methyl]phenyl}-1,3-thiazol-2-yl)-2-{[(2S)-2-hydroxy-3,3-dimethylbutanoyl]amino}pentanamide] | 86
CCC[C@H](NC(=O)[C@@H](O)C(C)(C)C)C(=O)Nc1ncc(-c2ccccc2COc2ccccc2F)s1 [compound 19, (2S)—N-(5-{2-[(2-fluorophenoxy)methyl]phenyl}-1,3-thiazol-2-yl)-2-{[(2S)-2-hydroxy-3,3-dimethylbutanoyl]amino}pentanamide] | 92
CCC[C@H](NC(=O)[C@@H](O)C(C)(C)C)C(=O)Nc1ncc(-c2ccccc2COc2ccc(Cl)c(C)c2)s1 [compound 72, (2S)—N-(5-{2-[(4-chloro-3-methylphenoxy)methyl]phenyl}-1,3-thiazol-2-yl)-2-{[(2S)-2-hydroxy-3,3-dimethylbutanoyl]amino}pentanamide] | 83.4
CCC[C@H](NC(=O)[C@@H](O)C(C)(C)C)C(=O)Nc1ncc(-c2ccccc2COc2ccccc2C)s1 [compound 36, (2S)-2-{[(2S)-2-hydroxy-3,3-dimethylbutanoyl]amino}-N-(5-{2-[(2-methylphenoxy)methyl]phenyl}-1,3-thiazol-2-yl}pentanamide] | 96.5
CCC[C@H](NC(=O)[C@@H](O)C(C)(C)C)C(=O)Nc1ncc(-c2ccccc2COc2cc(C)ccc2C)s1 [compound 33, (2S)—N-(5-{2-[(2,5-dimethylphenoxy)methyl]phenyl}-1,3-thiazol-2-yl)-2{[(2S)-2-hydroxy-3,3-dimethylbutanoyl]amino}pentanamide] | 87
CCC[C@H](NC(=O)[C@@H](O)C(C)(C)C)C(=O)Nc1ncc(-c2ccc(F)cc2COc2ccccc2)s1 [compound 48, (2S)—N-{5-[4-fluoro-2-(phenoxymethyl)phenyl]-1,3-thiazol-2-yl}-2-{[(2S)-2-hydroxy-3,3-dimethylbutanoyl]amino}pentanamide] | 75.5
CCC[C@H](NC(=O)[C@@H](O)C(C)C)C(=O)Nc1ncc(-c2ccccc2COc2cccc(F)c2)s1 [compound 63, (2S)—N-(5-{2-[(3-fluorophenoxy)methyl]phenyl}-1,3-thiazol-2-yl)-2-{[(2S)-2-hydroxy-3-methylbutanoyl]amino}pentanamide] | 130.7
CCC[C@H](NC(=O)[C@@H](O)C(C)C)C(=O)Nc1ncc(-c2ccc(OC)cc2COc2ccccc2)s1 [compound 49, (2S)-2-{[(2S)-2-hydroxy-3-methylbutanoyl]amino}-N-{5-[4-methoxy-2-(phenoxymethyl)phenyl]-1,3-thiazol-2-yl}pentanamide] | 159.5
CCC[C@H](NC(=O)[C@@H](O)C(C)(C)C)C(=O)Nc1ncc(-c2ccccc2COc2cccc(C)c2)s1 [compound 68, (2S)-2-{[(2S)-2-hydroxy-3,3-dimethylbutanoyl]amino}-N-(5-{2-[(3-methylphenoxy)methyl]phenyl}-1,3-thiazol-2-yl)pentanamide] | 80.6
CCC[C@H](NC(=O)C(O)C(C)(C)C)C(=O)Nc1ncc(-c2ccccc2COc2ccccc2OC)s1 (stereo partly drawn) [compound 38, (2S)-2-[(2-hydroxy-3,3-dimethylbutanoyl)amino]-N-(5-{2-[(2-methoxyphenoxy)methyl]phenyl}-1,3-thiazol-2-yl}pentanamide] | 85
CCC[C@H](NC(=O)[C@@H](O)C(C)(C)C)C(=O)Nc1ncc(-c2cc(Cl)ccc2COc2ccccc2)s1 [compound 55, (2S)—N-{5-[5-chloro-2-(phenoxymethyl)phenyl]-1,3-thiazol-2-yl}-2-{[(2S)-2-hydroxy-3,3-dimethylbutanoyl]amino}pentanamide] | 120.7
CCC[C@H](NC(=O)[C@@H](O)C(C)(C)C)C(=O)Nc1ncc(-c2ccccc2COc2cccc(OC)c2OC)s1 [compound 23, (2S)—N-(5-{2-[(2,3-dimethoxyphenoxy)methyl]-phenyl}-1,3-thiazol-2-yl)-2-{[(2S)-2-hydroxy-3,3-dimethylbutanoyl]amino}pentanamide] | 99
CCC[C@H](NC(=O)[C@@H](O)C(C)(C)C)C(=O)Nc1ncc(-c2ccccc2COc2cccc(F)c2F)s1 [compound 74, (2S)—N-(5-{2-[(2,3-difluorophenoxy)methyl]phenyl}-1,3-thiazol-2-yl)-2-{[(2S)-2-hydroxy-3,3-dimethylbutanoyl]amino}pentanamide] | 82
CCC[C@H](NC(=O)C(=O)C(C)CC)C(=O)Nc1ncc(-c2ccccc2COC(C)C)s1 (stereo partly drawn) [compound 14, N-{(1S)-1-[({5-[2-(isopropoxymethyl)phenyl]-1,3-thiazol-2-yl}amino)carbonyl]butyl}-3-methyl-2-oxopentanamide] | 112
